In the METLIN SMRT retention time set (Domingo-Almenara et al. 2019):

Experiment: gradient 5% acetonitrile 3 min, to 50% in 2 min, to 85% in 15 min, held 3 min, 100 µL/min
Details: column: Zorbax Extend-C18 2.1 x 50 mm; eluents: water / acetonitrile, 0.1% formic acid
Outline: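 Standards, all pure, were combined into mixtures of ~100 molecules and run at 100 μL/min on a Zorbax Extend-C18 column (2.1 × 50 mm, 1.8 μm) with water and acetonitrile, each containing 0.1% formic acid. A coupled quadrupole time-of-flight mass spectrometer operated in positive and negative ionization mode. Retention time values come from computationally picked adduct peaks, each inspected manually.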

Cn1c(C(=O)N2CCN(c3cccc(Cl)c3)CC2)cc2c(=O)oc3ccccc3c21
RP-LC retention time: 1030 s

Cc1noc(C)c1S(=O)(=O)N1CCC(c2noc(-c3ccccn3)n2)C1 (centres undefined)
RP-LC retention time: 794 s

COc1cc2c3c(c1OC)-c1cc4c(cc1CC3(C#N)N(C(=O)c1ccccc1)CC2)OCO4 (centres undefined)
RP-LC retention time: 987 s

Cn1cc(S(=O)(=O)N2CCOCC2)cc1C(=O)N1CCN(c2ccccn2)CC1
RP-LC retention time: 574 s

COc1ccc(-c2ccnc3nc(C(C)C)nn23)cc1
RP-LC retention time: 845 s

Cc1ccccc1Cn1cc(C(=O)Nc2cccc(Br)c2)ccc1=O
RP-LC retention time: 877 s

Cc1nnc(-c2cc(NC(=O)Cc3c(F)cccc3Cl)c(C)s2)o1
RP-LC retention time: 886 s

CCCN1C(=O)COc2ccc(-c3noc(Cc4ccc(OC)cc4)n3)cc21
RP-LC retention time: 1080 s

CCc1noc(NC(C)=O)c1-c1ccc(C)c(S(=O)(=O)Nc2ccc(F)c(Cl)c2)c1
RP-LC retention time: 875 s

CS(=O)(=O)Nc1ccc(C2(C(=O)NCCC3=CCCCC3)CCCCC2)cc1
RP-LC retention time: 1030 s

O=C(CSc1cc(-n2cccn2)ncn1)Nc1cccc(Cl)c1F
RP-LC retention time: 965 s

CCN(CC)C(=O)c1cc(C)nc2c1c(=O)n(Cc1ccccc1)c(=O)n2C
RP-LC retention time: 884 s

CCn1c(=O)sc2cc(S(=O)(=O)N3CCC(C(=O)NCc4ccco4)CC3)ccc21
RP-LC retention time: 792 s

CC(C)c1cccc(NC(=O)C2CCc3nc(N4CCOCC4)ncc3C2)c1 (centres undefined)
RP-LC retention time: 755 s

Cc1ccc(S(=O)(=O)NCc2ccccc2)cc1
RP-LC retention time: 908 s

Cc1cc(CN2CCC(CNC(=O)NCc3cccs3)CC2)c(C)o1
RP-LC retention time: 578 s

COc1ccc(C2Cn3cnc(C(=O)N4CCC(C(=O)NC(C)C)CC4)c3CO2)cc1 (centres undefined)
RP-LC retention time: 669 s

Cc1cc(Nc2ccc(C(=O)NC3CC3)cc2)n2nc(-c3cccnc3)nc2n1
RP-LC retention time: 612 s

Cn1cc2c3c(cccc31)CN(C(=O)c1ccc(Br)cc1)CC2
RP-LC retention time: 1030 s

Cc1ccc(C(=O)N2CCC(N3C(=O)C(O)C34CCCCC4)CC2)s1 (centres undefined)
RP-LC retention time: 678 s

CC1CCCCN1S(=O)(=O)c1ccc2c(c1)CCC(=O)N2CC(=O)NCc1ccc(N(C)C)cc1 (centres undefined)
RP-LC retention time: 676 s

c1ccc([C@@H]2NCCO[C@H]2COc2ccccn2)cc1
RP-LC retention time: 595 s

O=C(Cc1cccc(Cl)c1)N1CC2CN(S(=O)(=O)c3cccc(F)c3)CC(C1)O2
RP-LC retention time: 900 s

Cc1ccc(Sc2nccnc2N2CCCC(C(=O)Nc3ccc(C)cc3C)C2)cc1 (centres undefined)
RP-LC retention time: 1150 s

CCOc1cc(=O)n2c(c1C(=O)NCCOC)CCCCC2
RP-LC retention time: 600 s

CC(C)Oc1cccnc1N(C)C1CCN(Cc2ccccc2)CC1
RP-LC retention time: 627 s

COc1ccc(Cl)cc1C(=O)NCC(O)C1CCCCC1 (centres undefined)
RP-LC retention time: 863 s

O=C(NC1CC1)C1CCN(c2nc3ccc(-c4ccc(F)cc4)nc3s2)CC1
RP-LC retention time: 878 s

COc1ccc(N2CC(c3noc(-c4ccc(Cl)cc4)n3)CC2=O)cc1OC (centres undefined)
RP-LC retention time: 956 s

CCc1nc2c(=O)n(CC(=O)N3CCN(c4ccccc4)CC3)nc(C)c2s1
RP-LC retention time: 765 s

O=C(NCc1ccccc1)C1CCN(S(=O)(=O)c2cc(C(=O)N3CCCCCC3)cs2)CC1
RP-LC retention time: 866 s

C=CCn1nc(C)c(-c2cc(C(=O)O)[nH]n2)c1C
RP-LC retention time: 605 s

Clc1ccc(CNc2nnc(N3CCOCC3)c3ccccc23)cc1
RP-LC retention time: 693 s

O=C(Cc1cc(-c2ccco2)on1)Nc1ccc(F)c(F)c1F
RP-LC retention time: 838 s

COc1ccc(-c2nc(C3CC(=O)N(c4ccc(OC)cc4)C3)no2)cc1 (centres undefined)
RP-LC retention time: 904 s

CC1CN(C(=O)N2CCC(C(=O)N3CCC(C(N)=O)CC3)CC2)c2cc(Cl)ccc2O1 (centres undefined)
RP-LC retention time: 679 s

CCOC(=O)c1ccc(NC(=O)N2CCC(n3cnc4cccnc43)CC2)cc1
RP-LC retention time: 674 s

CS(=O)(=O)c1ccc2nc(NCCc3cccs3)sc2c1
RP-LC retention time: 738 s

COc1ccc(-c2nnc(CC(=O)N3CCC4(CC3)OCCO4)o2)cc1
RP-LC retention time: 681 s

CCOC(=O)c1[nH]c(C)c(C(=O)C(C)N(CC)C(=O)c2ccc(OC)cc2)c1C (centres undefined)
RP-LC retention time: 795 s

O=C(CN1C(=O)C(C(=O)N2CCCC2)Sc2ccccc21)NC1CCN(Cc2ccccc2)CC1 (centres undefined)
RP-LC retention time: 663 s

CCOC(=O)c1c(C)[nH]c(C)c1S(=O)(=O)N1CCC(C(=O)N2CCc3ccccc3C2)CC1
RP-LC retention time: 837 s

Cc1c(CN2CCC(N(C(=O)NCCc3ccccc3)C3CCOCC3)CC2)cnn1C
RP-LC retention time: 627 s

CC1=C(c2ccc(Cl)cc2)S(=O)(=O)N=C1N1CCCN(C(=O)c2cccs2)CC1
RP-LC retention time: 840 s

CN(C)[C@@H]1CN(C(=O)c2cc3cc(Cl)ccc3[nH]2)C[C@H]1CO
RP-LC retention time: 622 s

O=C(NCCn1ncccc1=O)c1csc(-c2ccccc2)n1
RP-LC retention time: 648 s

Cc1ccc(C(=O)NC2CCN(c3cc(-c4ccc(Cl)cc4)[nH]n3)C2)cc1C (centres undefined)
RP-LC retention time: 860 s

CCC(=O)N1CCc2cc(N3CC(C(=O)Nc4ccc(F)c(F)c4)CC3=O)ccc21 (centres undefined)
RP-LC retention time: 690 s

Cc1ccc(-n2c(N)cc(=O)nc2SCC(=O)Nc2nc3ccc(C)cc3s2)cc1
RP-LC retention time: 686 s

CCCNC(=O)C1CCCN(c2nc3ncn(CC(=O)Nc4ccccc4)c(=O)c3s2)C1 (centres undefined)
RP-LC retention time: 683 s

O=C(Nc1ccc2c(c1)OCCO2)N1CCCCC1c1nc(CCOCC2CC2)no1 (centres undefined)
RP-LC retention time: 878 s

O=c1n(Cc2ccccc2)nc2c(-c3nc(-c4ccccc4)no3)cccn12
RP-LC retention time: 984 s

CCN(CC)S(=O)(=O)c1ccc2nc(N3CCN(C4CCCCC4)CC3)cnc2c1
RP-LC retention time: 674 s

Cc1ccccc1CSc1ncnc2nc[nH]c12
RP-LC retention time: 744 s

CC(C)NC(=O)c1ccc(OCC2CCN(C(=O)CC(C)(C)C)CC2)cc1
RP-LC retention time: 875 s

CCCN(CC1CCOC1)C(=O)Nc1ccc(OCC)cc1 (centres undefined)
RP-LC retention time: 750 s

Cc1ccc(-c2nc3nc4c(c(N5CCN(c6ccccn6)CC5)n3n2)CCC4)cc1
RP-LC retention time: 684 s

CCCCNC(=O)c1nc(Nc2ccccc2)c2ccccc2n1
RP-LC retention time: 801 s

CCOc1cc(-c2ccc(F)cc2)nc2ccc(NS(=O)(=O)c3cccc(C#N)c3)cc12
RP-LC retention time: 816 s

O=C(Nc1ccc(F)cc1)C1CCN(C(=O)c2ncn3c2COC(c2ccccc2)C3)CC1 (centres undefined)
RP-LC retention time: 791 s

CC(C)(C)c1ccc(C(=O)NC2(c3nc(-c4cccnc4)no3)CCCCC2)cc1
RP-LC retention time: 1160 s

COc1ccc(-c2ncccc2CNC(=O)C2CC2)cc1
RP-LC retention time: 569 s

O=C(Nc1ccc2c(c1)OCCO2)c1ccc(-c2ccnc(N3CCCC3)n2)cc1
RP-LC retention time: 768 s

CCc1ccccc1NC(=O)COc1cc(C)nc(N2CCN(c3ccccc3)CC2)n1
RP-LC retention time: 935 s

Cc1ccc(-c2noc(-c3cccc(S(=O)(=O)N4CCCCC4)c3)n2)cc1
RP-LC retention time: 1340 s

CCN1CCCn2cc(S(=O)(=O)NCc3ccc(C)o3)cc2C1=O
RP-LC retention time: 676 s

COc1ccccc1NC(=O)N1CCCC1c1nncn1-c1ccccc1 (centres undefined)
RP-LC retention time: 711 s

CNC(=O)c1cc(Oc2ccc(NC(=O)Nc3ccc(Cl)c(C(F)(F)F)c3)cc2)ccn1
RP-LC retention time: 1190 s

Cc1[nH]ncc1CNC(=O)c1ccc2nc(Cc3ccccc3F)oc2c1
RP-LC retention time: 689 s

CN1C(=O)c2cccnc2Sc2cc(C(=O)NC3CCCCC3)ccc21
RP-LC retention time: 773 s

O=C(OCc1cc(-c2cc3ccccc3o2)on1)c1ccccc1S(=O)(=O)C(F)F
RP-LC retention time: 1090 s

Cc1cc(C)cc(NC(=O)C2CC(=O)N(CCc3c[nH]c4ccc(C)cc34)C2)c1 (centres undefined)
RP-LC retention time: 923 s

O=c1nccc(SCc2ccc(Cl)cc2Cl)[nH]1
RP-LC retention time: 842 s

CCn1nccc1-c1csc(S(=O)(=O)N2CCN(c3ccccn3)CC2)c1
RP-LC retention time: 657 s

Cc1ccn2cc(-c3ccc(NS(=O)(=O)c4ccc5ccccc5c4)cc3)nc2n1
RP-LC retention time: 690 s

COc1ccccc1-c1noc(C2CCCN2C(=O)c2ccc3c(c2)OCO3)n1 (centres undefined)
RP-LC retention time: 845 s

Cc1cc(C)c2c(N3CCCC3)nc(C(=O)Nc3ccc4c(c3)OCCO4)nc2n1
RP-LC retention time: 583 s

COc1cc(CN2CC(N(Cc3ccncc3)S(C)(=O)=O)C2)cc(OC)c1
RP-LC retention time: 568 s

Cn1cnc2c(C(=O)Nc3ccc(F)cc3)nn(-c3ccc(Cl)cc3)c2c1=O
RP-LC retention time: 956 s

COCCNC(=O)C1CCN(c2cnn(Cc3ccccc3)c(=O)c2)CC1
RP-LC retention time: 661 s

CCOCC(=O)N1CCC2(CC1)C(=O)N(C)c1ccccc12
RP-LC retention time: 694 s

CCN(CC)CCNC(=O)Cn1nc(C)c2nn(-c3ccc(F)cc3)c(-n3cccc3)c2c1=O
RP-LC retention time: 675 s

COc1ccc(C(=O)N2CC(n3cc(COCC4CC4)nn3)C2)cc1F
RP-LC retention time: 620 s

O=C(CSc1ncc(-c2ccccc2)[nH]1)Nc1nc(-c2ccc(C3CCCCC3)cc2)cs1
RP-LC retention time: 1420 s

COCCNC(=O)N1CCN(c2cc(-c3cccc(OC)c3)ncn2)CC1
RP-LC retention time: 593 s

CCCCCc1cccnc1
RP-LC retention time: 669 s

COc1ccc(-c2nnc(-c3ccccc3Cl)o2)cc1S(=O)(=O)N1CCCC1
RP-LC retention time: 969 s

Cc1cnc(C(=O)N[C@@H]2CCC[C@@H]2C(=O)NC2CCCCCC2)cn1
RP-LC retention time: 735 s

O=C(Cn1nc2n(c1=O)CCCC2)Nc1ccc(F)cc1
RP-LC retention time: 651 s
